One test concerns the target human cathepsin S (Homo sapiens (Human), UniProt P25774). The test is described as follows: In vitro human cathepsin S inhibitory activity (VVR-AMC fluorescence). The class given is biochemical. Particulars: human cathepsin S enzyme, substrate VVR-AMC 40 μM, pH 4.5, 37° C.; read-out: IC50 value of the human cathepsin S inhibitory activity (Data 1). The procedure: Test Example 1 Measurement of a In Vitro Human Cathepsin S Inhibitory Activity
5 μL of a human cathepsin S enzyme (R&D1183-CY-010) was added to a 96-well plate so as to be 20 ng/well. […] A reaction rate at the time of not adding an enzyme in which the test compound was not added and a reaction rate at the time of adding an enzyme in which the test compound was not added were set to 100% inhibition and 0% inhibition, respectively, then, an inhibition rate at each concentration was determined, and IC50 values were calculated by a linear regression method. In the Table, Ex represents Example compound No., and Data 1 represents an IC50 value (nM) of the human cathepsin S inhibitory activity.

In test [1] the test system is MHC class II expression in B220 positive B cells of mouse spleen cells. The test can be described thus: In vitro MHC class II expression inhibitory effect using mouse spleen cells (LPS-stimulated B cells, flow cytometry). The class given is cell-based, C57BL/6 mice. Particulars: B-cell, read-out: IC50 value of MHC class II expression inhibition (Data 2). The method, then:
Test Example 2 Evaluation of In Vitro MHC Class II Expression Inhibitory Effect Using Mouse Spleen Cells (Cell Evaluation System)
In antigen-presenting cells, the inhibition of cathepsin S inhibits the expression of MHC class II molecules. […] For an increased expression of MI-IC class II in B cells, the inhibitory effect of the compound represented by formula (I) was examined.
First, spleen cells collected from C57BL/6 mice were seeded in a 96-well plate so as to be a 1×10^5 cells/well, then, 5-fold dilution of 10 mM DMSO solution of the test compound was serially performed with RPMI 1640 medium (including 10% fetal bovine serum (FCS), 5×10^−5 M 2-mercaptoethanol, 50 IU/mL penicillin and 50 μg/mL streptomycin) nine times such that the final concentration becomes 0.026 nM to 10 μM, and the resultant products were added thereto (the final DMSO concentration was 0.1%). At the same time, LPS (Sigma L4005) was added to the wells such that the final concentration becomes 2 μg/mL, and culture was performed at 37° C. for 48 hours in 5% CO2. After culturing, the cells were stained at 4° C. for 20 minutes with PE-labeled streptavidin (BD BIOSCIENCE 554061) and biotin-labeled YAe antibody (EBIOSCIENCE 13-5741-85) together with FITC-labeled anti-mouse B220 antibody (BD BIOSCIENCE 553088), and an expression level (fluorescence intensity of YAe-biotin/streptavidin-PE) of MHC class II to which Ea peptide in B220 positive B cells was bonded was measured using a flow cytometry system (Guava EasyCyte Plus System, manufactured by Millipore Corporation). A value at the time of unstimulation of LPS in which the test compound was not added and a value at the time of stimulation of LPS in which the test compound was not added were set to 100% inhibition and 0% inhibition, respectively, then, an inhibition rate at each concentration was determined, and IC50 values were calculated by a linear regression method. In the Table, Ex represents Example compound No., and Data 2 represents an IC50 value (nM).
In general terms: Flow cytometry measures light scatter and fluorescence of single cells or particles in a stream.

Test [2] has as its system OVA specific IgG antibody titer. The test is described as follows: Antibody production inhibitory effect in mouse OVA-induced antibody production model. The class given is in vivo, BALB/c male mice. The procedure:
Test Example 4 Evaluation of Antibody Production Inhibitory Effect in Mouse OVA-Induced Antibody Production Model
Evaluation of an antibody production inhibitory effect in vivo was performed.
The BALB/c male mice were sensitized by intraperitoneal administration of 200 μL of an emulsion consisting of 100 μg of ovalbumin (OVA) (SIGMA A5503) and 100 μL of a complete Freund's adjuvant (CFA) (DIFCO 231131) (Day 0), and a week after that, the mice were sensitized by intraperitoneal administration of 200 μL of an emulsion consisting of 50 μg of OVA and 100 μL of an incomplete Freund's adjuvant (IFA) (DIFCO 263910) (Day 7). The test compound dissolved in a vehicle (30% propylene glycol solvent (propylene glycol:HCO40:Tween 80=4:2:1)/HCl (2 equivalents with respect to the test compound)/water) was orally administered (dose: 0.3 mg/kg, 1 mg/kg, or 3 mg/kg) at 10 mL/kg/day from Day 0 to Day 14, and an OVA specific IgG antibody titer in blood plasma at Day 14 was evaluated. Measurement of antibody titer was carried out using a blood plasma sample which was diluted 40,000 times by an ELISA method, and the antibody titer was represented as a ratio with respect to control blood plasma. An antibody titer of a mouse to which the vehicle was orally administered at 10 mL/kg/day from Day 0 to Day 14 was set to 0% inhibition, an antibody titer of a normal mouse to which the vehicle was orally administered at 10 mL/kg/day from Day 0 to Day 14 and which was not sensitized with OVA was set to 100% inhibition, and the inhibition rate at the time of the test compound administration was calculated.

For test [3], the system named is MHC class II expression in peripheral blood B cells. The test can be described thus: Ex vivo MHC class II expression inhibitory effect using mouse peripheral blood after oral administration. The class given is in vivo, C57BL/6 mice. To be noted: blood collected after 3 hours, LPS 15 hours. The procedure: Test Example 3 Evaluation of Ex Vivo MHC Class II Expression Inhibitory Effect Using Mouse Peripheral Blood
The expression inhibitory effect of MHC class II molecules was evaluated in an ex vivo system.
The test compound was orally administered into C57BL/6mice, and the inhibitory effect with respect to the increased expression of MHC class II in B cells in peripheral blood after oral administration was examined. That is, 10 mL/kg of the test compound dissolved in a vehicle (30% propylene glycol solvent (propylene glycol:cured castor oil (HCO40):Tween 80=4:2:1)/HCl (2 equivalents with respect to the test compound)/water) was orally administered (dose: 0.1 mg/kg, 0.3 mg/kg, 1 mg/kg, or 3 mg/kg) to a C57BL/6mice, and the peripheral blood was collected after 3 hours. 10 μL of RPMI 1640 medium (including 5×10^−5 M of 2-mercaptoethanol, 50 IU/mL of penicillin, and 50 μg/mL of streptomycin) or 10 μL of LPS adjusted with the medium such that the final concentration becomes 100 μg/mL was added to 90 μL of the peripheral blood, and culture was performed at 37° C. for 15 hours in 5% CO2. After culturing, the cells were stained at 4° C. for 30 minutes with FITC-labeled anti-mouse I-A/I-E antibody (BD BIOSCIENCE 553623) and PE-labeled B220 antibody (BD BIOSCIENCE 553090), and hemolysis and fixation were performed at 37° C. for 10 minutes using a buffer (BD BIOSCIENCE Phosflow Lyse/Fix Buffer 558049). After washing, using a flow cytometry system (FACSCanto II, manufactured by BD BIOSCIENCE), an expression level of MHC class II on a B220 positive B cell surface was measured by using a fluorescence intensity of FITC (hereinafter, referred to as MFI) as an indicator. The difference between a MFI at the time of stimulation of LPS and a MFI at the time of unstimulation of LPS was set to a ΔMFI, a ΔMFI of a mouse in which 10 mL/kg of only vehicle was administered was set to 1, and the inhibition rate of ΔMFI by the test compound administration was calculated.

The subject of another test is SLE spontaneous model. The test can be described thus: SLE onset inhibitory effect in spontaneous model using NZB/W F1 mouse. The class given is in vivo, NZB/W F1 female mice. To be noted: oral 0.3 mg/kg once a day from 20 weeks old, at 41 weeks old. The procedure: NZB/W F1 mice are used as a model of SLE that spontaneously develops a condition close to humans ([…] et al, Proceedings of the university otago medical school (New Zealand), 1961, Vol. 39, p. 3; Advances in Immunology, 1985, Vol. 37, p. 269-390; Perry et al, Journal of Biomedicine and Biotechnology, 2011, Article ID 271694, Review Article). […] At this time, an individual having greater than 100 mg/dL of urine protein was excluded. […] Furthermore, a pathology evaluation of kidney tissue in the above Test 5 was performed. […] In accordance with histological classification of lupus nephritis by WHO, a histopathological image was classified into Class I (normal glomerulus), Class II (mesangium lesion), Class III (focal segmental glomerulonephritis), Class IV (diffuse glomerulonephritis), and Class VI (progressive sclerosing lupus nephritis).

The mark [4] stands for this setting: C57BL/6 spleen cells, LPS 2 μg/mL, 48 hours, B220 positive B cells.
[5] abbreviates: oral 1 mg/kg daily Day 0 to Day 14, titer at Day 14.

Structures can show the parent of a compound that is named as a salt. Where two headings read alike, the source gives them in different places.

Sequence of human cathepsin S (P25774 115-331): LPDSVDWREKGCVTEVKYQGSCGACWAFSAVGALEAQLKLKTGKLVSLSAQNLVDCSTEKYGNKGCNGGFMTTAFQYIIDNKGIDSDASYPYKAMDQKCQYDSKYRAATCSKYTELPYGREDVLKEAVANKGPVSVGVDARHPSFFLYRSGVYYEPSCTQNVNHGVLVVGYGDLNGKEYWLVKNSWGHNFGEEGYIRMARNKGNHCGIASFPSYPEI

As for `Cl.Cn1ccc2c(-c3ccc(OCCC4CCNCC4)c(C(F)(F)F)c3)nc(C#N)nc21` [Example 2, 7-methyl-4-{4-[2-(piperidin-4-yl)ethoxy]-3-(trifluoromethyl)phenyl}-7H-pyrrolo[2,3-d]pyrimidine-2-carbonitrile monohydrochloride], the IC50 on human cathepsin S is 2.3 nM; in test [1] (setting [4]), 1.2 nM. Besides, the “inhibition of OVA specific IgG antibody titer in blood plasma” value (from here on “inhibition … in blood plasma”) in test [2] (setting [5]) is listed as 61±10%.

In the case of `CN1CCC[C@H]1C(=O)N1CCC(CCOc2ccc(-c3nc(C#N)nc4c3ccn4CC3CCCO3)cc2C(F)(F)F)CC1` (stereo partly drawn) [Example 15, 4-[4-{2-[1-(1-methyl-L-prolyl)piperidin-4-yl]ethoxy}-3-(trifluoromethyl)phenyl]-7-(tetrahydrofuran-2-ylmethyl)-7H-pyrrolo[2,3-d]pyrimidine-2-carbonitrile monohydrochloride], the concentration for half-maximal inhibition (IC50) at human cathepsin S came out at 3.4 nM; in test [1] (setting [4]) it was 2.1 nM.

As for `Cl.Cn1cnc2c(-c3cnc(OCCC4CCNCC4)c(C(F)(F)F)c3)nc(C#N)nc21` [Example 28, 9-methyl-6-{6-[2-(piperidin-4-yl)ethoxy]-5-(trifluoromethyl)pyridin-3-yl}-9H-purine-2-carbonitrile monohydrochloride], the “inhibition rate of ΔMFI (increased expression of MHC class II in peripheral blood B cells)” value in test [3] (oral 0.3 mg/kg) was 40±1.4%. Further, the “inhibition … in blood plasma” value in test [2] (setting [5]) was found to be 83±2%.

Take `CCN1CCC(CCOc2ncc(-c3nc(C#N)nc4c3ncn4C)cc2C(F)(F)F)CC1` [Example 39, 6-{6-[2-(1-ethylpiperidin-4-yl)ethoxy]-5-(trifluoromethyl)pyridin-3-yl}-9-methyl-9H-purine-2-carbonitrile]: in test [1] (setting [4]), the IC50 worked out at 0.61 nM. Besides, in test [3] (oral 1 mg/kg), the “inhibition rate of ΔMFI (increased expression of MHC class II in peripheral blood B cells)” value came to 61±1.2%. The “inhibition … in blood plasma” value in test [2] (oral 0.3 mg/kg daily Day 0 to Day 14, titer at Day 14) turned out to be 74±8%. The “average anti-dsDNA IgG antibody titer” value with SLE spontaneous model (10 cases, ELISA) is on record as 9,263±1,700 mU/mL. In the test on SLE spontaneous model (all individuals of 10 cases), this molecule yielded a urine protein of at most 100 mg/dL.

With `CN1CCC(NC(=O)Cn2ccc3c(-c4ccc(OCCC5CCOCC5)c(C(F)(F)F)c4)nc(C#N)nc32)CC1` [Example 47], the IC50 was 2.1 nM at human cathepsin S and 2 nM in test [1] (48 h).

As to `CN1CCC[C@H]1C(=O)N1CCC(CCOc2ccc(-c3nc(C#N)nc4c3ncn4CC3CCOC3)cc2C(F)(F)F)CC1` (stereo partly drawn) [Example 77], the IC50 on human cathepsin S stood at 2.7 nM; in test [1] (setting [4]), 1.5 nM.

As for `CN1CCC[C@@H]1C(=O)N1CC[C@@H](OCCOc2ncc(-c3nc(C#N)nc4c3ccn4C)cc2C(F)(F)F)C1` [Example 158], the IC50 in test [1] (setting [4]) turned out to be 0.62 nM. In addition, in test [3] (oral 0.3 mg/kg), the “inhibition rate of ΔMFI (increased expression of MHC class II in peripheral blood B cells)” value was found to be 59±1.5%.

For orientation: IC50 means the concentration needed to halve the response being measured.

The values are drawn from patent US9328118B2, “Nitrogen-containing bicyclic aromatic heterocyclic compound” (ASTELLAS PHARMA INC., priority 2012, dated 2016).
